Data taken from patent publication US20170107203A1, “HETEROCYCLIC INHIBITORS OF THE SODIUM CHANNEL” (EPIRUS BIOPHARMACEUTICALS, INC., priority 2014, published 2017).

Molecular target: T1, human Nav1.7 (Homo sapiens, UniProt Q15858)
T1 construct: expressed in transfected cells
Assay: Assessment of Nav1.7 activity on PatchXpress (voltage dependence / slow inactivation parameters)
Type: cell-based
Details: compound at 10 μM, relative to 0.2% DMSO vehicle control; for hNav1.7: Reduction in current at 20 mV (normalized data) Delta Ratio: before/after 30 sec conditioning pulse at 20 mV; for hNav1.7: Shift in voltage dependence of inactivation (mV) Delta Vhalf: PatchXpress
Experimental: The generation of a HEK 293F cell line stably expressing human Nav1.7/Navp1 was achieved by co-transfecting human SCN9A and human SCN1B cDNAs, subcloned into plasmid vectors, utilizing standard transfection techniques. Clones were selected using appropriate selection agents (0.3 mg/mL Zeocin and 0.8 mg/mL Geneticin) and maintained in Dulbecco's Modified Eagle medium, 10% fetal bovine serum, 1% non-essential amino acids to ˜80% confluence at 37° C. in a humidified incubator with 95% atmosphere and 5% CO2.
On the day of each experiment, cells that were grown to 80% confluence in a T75 flask were harvested for use on PatchXpress (Molecular Devices, CA, USA). Following a recovery period at 37° C. in a humidified incubator with 95% atmosphere and 5% CO2 in Dulbecco's Modified Eagle Medium, the media was replaced with an external recording solution containing (in mM): 90 TEACI, 50 NaCl, 1.8 CaCl2, 1 MgCl2, 10 HEPES, 10 glucose, adjusted to pH 7.4 with TEAOH and 300 mOsm with sucrose. The internal recording solution contained (in mM): 129 CsF, 2 MgCl2, 11 EGTA, 10 HEPES, 6 NaCl, 3 Na2ATP adjusted to pH 7.2 with CsOH and 280 mOsm with sucrose. The automated liquid handling facility of PatchXpress dispensed cells and added compound. Modulation of Nav1.7 channels by compounds was assessed by promoting the channels into the inactivated state using a conditioning voltage pulse of variable amplitude, followed by a brief hyperpolarizing pulse with a subsequent depolarized voltage step to measure the current amplitude in the presence and absence of compound. Compounds were assayed at 10 μM. Based upon this Patch express protocol, four electrophysiological parameters were measured relative to a 0.2% DMSO vehicle control (Table 2).

T1 sequence (Q15858 whole entry): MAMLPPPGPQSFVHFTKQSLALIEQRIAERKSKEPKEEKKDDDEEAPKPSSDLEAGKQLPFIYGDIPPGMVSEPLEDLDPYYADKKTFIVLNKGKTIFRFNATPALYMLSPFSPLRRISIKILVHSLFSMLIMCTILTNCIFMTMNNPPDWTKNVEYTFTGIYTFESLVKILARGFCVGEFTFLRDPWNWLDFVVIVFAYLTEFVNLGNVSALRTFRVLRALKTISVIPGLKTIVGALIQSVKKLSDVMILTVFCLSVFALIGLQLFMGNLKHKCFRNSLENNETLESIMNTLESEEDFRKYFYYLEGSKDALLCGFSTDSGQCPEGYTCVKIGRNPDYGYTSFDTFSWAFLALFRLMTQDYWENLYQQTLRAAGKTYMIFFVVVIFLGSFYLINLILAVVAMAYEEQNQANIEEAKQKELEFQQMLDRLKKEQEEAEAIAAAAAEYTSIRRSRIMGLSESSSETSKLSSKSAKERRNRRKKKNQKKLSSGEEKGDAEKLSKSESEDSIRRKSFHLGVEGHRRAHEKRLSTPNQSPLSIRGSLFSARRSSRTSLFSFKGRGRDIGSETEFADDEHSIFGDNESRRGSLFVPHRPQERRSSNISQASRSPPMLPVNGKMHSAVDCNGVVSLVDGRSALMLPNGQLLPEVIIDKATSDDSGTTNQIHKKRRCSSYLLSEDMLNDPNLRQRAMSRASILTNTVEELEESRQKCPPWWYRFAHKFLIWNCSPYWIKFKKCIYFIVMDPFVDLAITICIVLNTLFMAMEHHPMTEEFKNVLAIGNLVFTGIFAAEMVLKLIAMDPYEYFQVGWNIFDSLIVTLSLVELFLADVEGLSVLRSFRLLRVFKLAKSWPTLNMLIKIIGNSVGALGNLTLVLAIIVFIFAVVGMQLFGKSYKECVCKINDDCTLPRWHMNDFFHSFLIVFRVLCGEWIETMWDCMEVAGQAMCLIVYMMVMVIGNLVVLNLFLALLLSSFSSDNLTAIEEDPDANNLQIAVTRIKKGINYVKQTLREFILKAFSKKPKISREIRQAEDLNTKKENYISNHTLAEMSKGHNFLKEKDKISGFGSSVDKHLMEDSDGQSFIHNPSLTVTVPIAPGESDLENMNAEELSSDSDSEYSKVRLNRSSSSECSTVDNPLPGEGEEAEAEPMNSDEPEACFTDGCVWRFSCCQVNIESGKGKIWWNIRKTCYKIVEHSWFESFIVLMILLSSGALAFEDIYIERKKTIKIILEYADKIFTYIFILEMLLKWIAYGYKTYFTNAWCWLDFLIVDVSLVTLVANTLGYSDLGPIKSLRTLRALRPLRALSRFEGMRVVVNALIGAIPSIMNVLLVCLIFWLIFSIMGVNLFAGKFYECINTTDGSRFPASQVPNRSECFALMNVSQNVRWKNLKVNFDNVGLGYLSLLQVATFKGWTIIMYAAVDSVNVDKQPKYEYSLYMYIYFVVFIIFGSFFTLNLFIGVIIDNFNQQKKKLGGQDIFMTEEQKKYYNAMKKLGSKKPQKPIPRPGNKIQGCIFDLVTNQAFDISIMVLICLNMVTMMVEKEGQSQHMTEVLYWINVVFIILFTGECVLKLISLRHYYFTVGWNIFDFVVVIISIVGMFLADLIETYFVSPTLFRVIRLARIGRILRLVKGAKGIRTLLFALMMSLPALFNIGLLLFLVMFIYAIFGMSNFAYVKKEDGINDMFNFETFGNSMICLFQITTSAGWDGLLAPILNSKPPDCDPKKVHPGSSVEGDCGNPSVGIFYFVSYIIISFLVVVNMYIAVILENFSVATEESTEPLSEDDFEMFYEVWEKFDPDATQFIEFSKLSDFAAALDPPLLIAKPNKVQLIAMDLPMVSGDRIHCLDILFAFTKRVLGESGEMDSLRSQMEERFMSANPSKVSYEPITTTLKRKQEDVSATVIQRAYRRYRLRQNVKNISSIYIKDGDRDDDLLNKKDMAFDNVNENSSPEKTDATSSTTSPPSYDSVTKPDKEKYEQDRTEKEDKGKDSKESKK
T1 sequence (Q07699 19-218 partner): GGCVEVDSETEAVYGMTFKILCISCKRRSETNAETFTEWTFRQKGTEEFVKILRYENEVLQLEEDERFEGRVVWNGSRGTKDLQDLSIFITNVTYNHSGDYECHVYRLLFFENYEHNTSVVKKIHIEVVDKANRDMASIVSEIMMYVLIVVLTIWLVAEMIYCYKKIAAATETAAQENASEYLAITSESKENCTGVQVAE

N[C@H](Cc1cccc(F)c1)c1nc2cc(C(F)(F)F)cc(C(F)(F)F)c2[nH]1 [Compound 55, (R)-1-(4,6-bis(trifluoromethyl)-1H-benzo[d]imidazol-2-yl)-2-(3-fluorophenyl)ethan-1-amine]
hNav1.7: Reduction in current at 20 mV (normalized data) Delta Ratio: −0.26
hNav1.7: Voltage dependence of activation (mV) VDEP: −8.6 mV
hNav1.7: Voltage dependence of fast inactivation (mV) VDEP: −6.2 mV
hNav1.7: Shift in voltage dependence of inactivation (mV) Delta Vhalf: −15.1 mV

C[C@@H](NC(=O)[C@@H]1CCCN1)c1ccc(OCC(F)(F)F)cn1 [Compound 82, (S)-N-((R)-1-(5-(2,2,2-trifluoroethoxy)pyridin-2-yl)ethyl)pyrrolidine-2-carboxamide]
hNav1.7: Reduction in current at 20 mV (normalized data) Delta Ratio: −0.02
hNav1.7: Voltage dependence of activation (mV) VDEP: −5.6 mV
hNav1.7: Voltage dependence of fast inactivation (mV) VDEP: −8.7 mV
hNav1.7: Shift in voltage dependence of inactivation (mV) Delta Vhalf: −2.5 mV

Cc1cccc(C)c1OCC(C)NC(=O)[C@H](N)CC(C)C (stereo partly drawn) [Compound 2, (2R)-2-amino-N-(1-(2,6-dimethylphenoxy)propan-2-yl)-4-methylpentanamide]
hNav1.7: Reduction in current at 20 mV (normalized data) Delta Ratio: −0.29
hNav1.7: Voltage dependence of activation (mV) VDEP: −10.00 mV
hNav1.7: Voltage dependence of fast inactivation (mV) VDEP: −8.20 mV
hNav1.7: Shift in voltage dependence of inactivation (mV) Delta Vhalf: −32.20 mV

FC(F)(F)c1cc(C(F)(F)F)c2[nH]c(C3NCc4ccccc43)nc2c1 (centres unmarked) [Compound 59, 2-(isoindolin-1-y)-4,6-bis(trifluoromethyl)-1H-benzo[d]imidazole]
hNav1.7: Reduction in current at 20 mV (normalized data) Delta Ratio: −0.2
hNav1.7: Voltage dependence of activation (mV) VDEP: −9 mV
hNav1.7: Voltage dependence of fast inactivation (mV) VDEP: −5.9 mV
hNav1.7: Shift in voltage dependence of inactivation (mV) Delta Vhalf: −12.8 mV

O=C(NCCOc1cc(F)cc(C(F)(F)F)c1)[C@H]1CCCN1 [Compound 20, (R)-N-(2-(3-fluoro-5-(trifluoromethyl)phenoxy)ethyl) pyrrolidine-2-carboxamide]
hNav1.7: Reduction in current at 20 mV (normalized data) Delta Ratio: −0.01
hNav1.7: Voltage dependence of activation (mV) VDEP: −6.80 mV
hNav1.7: Voltage dependence of fast inactivation (mV) VDEP: −4.40 mV
hNav1.7: Shift in voltage dependence of inactivation (mV) Delta Vhalf: −7.20 mV

CC(C)C[C@H](N)CC(=O)NCCOc1cc(F)cc(C(F)(F)F)c1 [Compound 18, (S)-3-amino-N-(2-(3-fluoro-5-(trifluoromethyl)phenoxy)ethyl)-5-methylhexanamide]
hNav1.7: Reduction in current at 20 mV (normalized data) Delta Ratio: −0.09
hNav1.7: Voltage dependence of activation (mV) VDEP: −2.60 mV
hNav1.7: Voltage dependence of fast inactivation (mV) VDEP: −3.90 mV
hNav1.7: Shift in voltage dependence of inactivation (mV) Delta Vhalf: −11.90 mV

CC1(c2cc(C(F)(F)F)cc(C(F)(F)F)c2)NC(=O)NC1=O (centres unmarked) [Compound 42, 5-(3,5-bis(trifluoromethyl)phenyl)-5-methylimidazolidine-2,4-dione]
hNav1.7: Reduction in current at 20 mV (normalized data) Delta Ratio: 0.02
hNav1.7: Voltage dependence of activation (mV) VDEP: −6.60 mV
hNav1.7: Voltage dependence of fast inactivation (mV) VDEP: −2.50 mV
hNav1.7: Shift in voltage dependence of inactivation (mV) Delta Vhalf: 0.50 mV

CC(C)(CC(=O)N1CCNCC1)c1nc2cc(F)cc(F)c2[nH]1 [Compound 67, 3-(4,6-difluoro-1H-benzo[d]imidazol-2-yl)-3-methyl-1-(piperazin-1-yl)butan-1-one]
hNav1.7: Reduction in current at 20 mV (normalized data) Delta Ratio: −0.13
hNav1.7: Voltage dependence of activation (mV) VDEP: −9.7 mV
hNav1.7: Voltage dependence of fast inactivation (mV) VDEP: −7.6 mV
hNav1.7: Shift in voltage dependence of inactivation (mV) Delta Vhalf: −7.8 mV

N[C@@H](c1ccc(F)cc1)c1nc2cc(C(F)(F)F)cc(C(F)(F)F)c2[nH]1 [Compound 58, (S)-(4,6-bis(trifluoromethyl)-1H-benzo[d]imidazol-2-yl)(4-fluorophenyl)methanamine]
hNav1.7: Reduction in current at 20 mV (normalized data) Delta Ratio: −0.21
hNav1.7: Voltage dependence of activation (mV) VDEP: −4 mV
hNav1.7: Voltage dependence of fast inactivation (mV) VDEP: −4.9 mV
hNav1.7: Shift in voltage dependence of inactivation (mV) Delta Vhalf: −8.6 mV

C[C@@H](NC(=O)CN1CCNCC1=O)c1ccc(OCC(F)(F)F)cn1 [Compound 81, (R)-2-(2-oxopiperazin-1-yl)-N-(1-(5-(2,2,2-trifluoroethoxy)pyridin-2-yl)ethyl)acetamide]
hNav1.7: Reduction in current at 20 mV (normalized data) Delta Ratio: −0.02
hNav1.7: Voltage dependence of activation (mV) VDEP: −10.3 mV
hNav1.7: Voltage dependence of fast inactivation (mV) VDEP: −5 mV
hNav1.7: Shift in voltage dependence of inactivation (mV) Delta Vhalf: −2.8 mV

Cc1cccc(C)c1OCC(C)NC(=O)[C@@H](N)CC(C)C (stereo partly drawn) [Compound 3, (2S)-2-amino-N-(1-(2,6-dimethylphenoxy)propan-2-yl)-4-methylpentanamide]
hNav1.7: Reduction in current at 20 mV (normalized data) Delta Ratio: −0.28
hNav1.7: Voltage dependence of activation (mV) VDEP: −8.10 mV
hNav1.7: Voltage dependence of fast inactivation (mV) VDEP: −7.40 mV
hNav1.7: Shift in voltage dependence of inactivation (mV) Delta Vhalf: −28.00 mV

Cc1cccc(C)c1OCC(C)NC(=O)C(C)(C)N1CCNCC1=O (centres unmarked) [Compound 37, N-(1-(2,6-dimethylphenoxy)propan-2-yl)-2-methyl-2-(2-oxopiperazin-1-yl)propanamide]
hNav1.7: Reduction in current at 20 mV (normalized data) Delta Ratio: −0.09
hNav1.7: Voltage dependence of activation (mV) VDEP: −9.00 mV
hNav1.7: Voltage dependence of fast inactivation (mV) VDEP: −6.30 mV
hNav1.7: Shift in voltage dependence of inactivation (mV) Delta Vhalf: −5.00 mV

N[C@H](Cc1ccc(F)cc1)Cc1nc2cc(C(F)(F)F)cc(C(F)(F)F)c2[nH]1 [Compound 56, (R)-1-(4,6-bis(trifluoromethyl)-1H-benzo[d]imidazol-2-yl)-3-(4-fluorophenyl)propan-2-amine]
hNav1.7: Reduction in current at 20 mV (normalized data) Delta Ratio: −0.21
hNav1.7: Voltage dependence of activation (mV) VDEP: −14.4 mV
hNav1.7: Voltage dependence of fast inactivation (mV) VDEP: −3.3 mV
hNav1.7: Shift in voltage dependence of inactivation (mV) Delta Vhalf: −16.8 mV

CN(Cc1nc2c(C(F)(F)F)cc(C(F)(F)F)cc2[nH]1)C(=O)CNC(C)(C)C [Compound 77, N-((4,6-bis(trifluoromethyl)-1H-benzo[d]imidazol-2-yl)methyl)-2-(tert-butylamino)-N-methylacetamide]
hNav1.7: Reduction in current at 20 mV (normalized data) Delta Ratio: −0.06
hNav1.7: Voltage dependence of activation (mV) VDEP: −2.2 mV
hNav1.7: Voltage dependence of fast inactivation (mV) VDEP: −5 mV
hNav1.7: Shift in voltage dependence of inactivation (mV) Delta Vhalf: −0.3 mV

CN[C@H](CC(C)C)C(=O)NCCOc1cc(C(F)(F)F)cc(C(F)(F)F)c1 [Compound 13, (R)-N-(2-(3,5-bis(trifluoromethyl)phenoxy)ethyl)-4-methyl-2-(methylamino)pentanamide]
hNav1.7: Reduction in current at 20 mV (normalized data) Delta Ratio: −0.17
hNav1.7: Voltage dependence of activation (mV) VDEP: −5.90 mV
hNav1.7: Voltage dependence of fast inactivation (mV) VDEP: −4.00 mV
hNav1.7: Shift in voltage dependence of inactivation (mV) Delta Vhalf: −23.80 mV

O=C(CCc1nc2cc(C(F)(F)F)cc(C(F)(F)F)c2[nH]1)N1CCNCC1 [Compound 61, 3-(4,6-bis(trifluoromethyl)-1H-benzo[d]imidazol-2-yl)-1-(piperazin-1-yl)propan-1-one]
hNav1.7: Reduction in current at 20 mV (normalized data) Delta Ratio: −0.19
hNav1.7: Voltage dependence of activation (mV) VDEP: −11.3 mV
hNav1.7: Voltage dependence of fast inactivation (mV) VDEP: −5.1 mV
hNav1.7: Shift in voltage dependence of inactivation (mV) Delta Vhalf: −9.2 mV

N[C@H](Cc1cccc(C(F)(F)F)c1)C(=O)NCc1nc2ccc(-c3ccc(F)c(Cl)c3)cc2[nH]1 [Compound 71, (R)-2-amino-N-((6-(3-chloro-4-fluorophenyl)-1H-benzo[d]imidazol-2-yl)methyl)-3-(3-(trifluoromethyl)phenyl)propanamide]
hNav1.7: Reduction in current at 20 mV (normalized data) Delta Ratio: −0.07
hNav1.7: Voltage dependence of activation (mV) VDEP: −10.5 mV
hNav1.7: Voltage dependence of fast inactivation (mV) VDEP: −6.3 mV
hNav1.7: Shift in voltage dependence of inactivation (mV) Delta Vhalf: −8.5 mV

CC12CC3CC(C)(C1)CC(NC(=O)[C@H]1CCCN1)(C3)C2 [Compound 43, (2R)-N-(3,5-dimethyladamantan-1-yl)pyrrolidine-2-carboxamide]
hNav1.7: Reduction in current at 20 mV (normalized data) Delta Ratio: −0.12
hNav1.7: Voltage dependence of activation (mV) VDEP: −11.40 mV
hNav1.7: Voltage dependence of fast inactivation (mV) VDEP: −5.70 mV
hNav1.7: Shift in voltage dependence of inactivation (mV) Delta Vhalf: −8.50 mV

O=C1CNCCN1Cc1cc(C(F)(F)F)cc(C(F)(F)F)c1 [Compound 91, 1-(3,5-bis(trifluoromethyl)benzyl)piperazin-2-one]
hNav1.7: Reduction in current at 20 mV (normalized data) Delta Ratio: 0.01
hNav1.7: Voltage dependence of activation (mV) VDEP: −5 mV
hNav1.7: Voltage dependence of fast inactivation (mV) VDEP: −4.1 mV
hNav1.7: Shift in voltage dependence of inactivation (mV) Delta Vhalf: −3.1 mV

O=C(CN1CCNCC1=O)NCC(F)(F)F [Compound 47, 2-(2-oxopiperazin-1-yl)-N-(2,2,2-trifluoroethyl)acetamide]
hNav1.7: Reduction in current at 20 mV (normalized data) Delta Ratio: −0.02
hNav1.7: Voltage dependence of activation (mV) VDEP: −8.90 mV
hNav1.7: Voltage dependence of fast inactivation (mV) VDEP: −4.40 mV
hNav1.7: Shift in voltage dependence of inactivation (mV) Delta Vhalf: −2.50 mV
